How the values were obtained:
[1] = system: E-selectin and VCAM-1; test: Western analysis of TNFα-induced E-selectin and VCAM-1 in human RECs; format: cell-based; conditions: TNFα 100 ng/mL, 6 hours
Protocol: (§1) Western Blotting. Protein concentrations were determined using the fluorescamine assay (Bohlen et al., Arch Biochem Biophys 155: 213 (1973)) with bovine serum albumin as the standard. Samples were normalized for equal amounts of protein per lane (100 μg), separated by sodium dodecylsulfate-polyacrylamide gel electrophoresis and electrotransferred to nitrocellulose membranes. For SK analyses, membranes were blocked with 5% nonfat milk in Tris-buffered saline with Tween 20 and probed with an anti-SK rabbit polyclonal antibody at a 1:50 dilution, washed and incubated with […] antibodies conjugated to horseradish peroxidase (1 hr in 3% nonfat milk). The blots were then washed 4 times for 5 minutes at room temperature, developed with SuperSignal development reagents (Pierce Biotechnology, Inc., Rockford, Ill.) and exposed to Kodak XAR film. […]
(§2) Western analyses were conducted to evaluate the effects of Compound II on signaling proteins known to be regulated in endothelial cells by VEGF or TNFα. […] Cell lysates from cells treated with VEGF for 15 minutes were then analyzed for levels of phosphorylated ERK1/2 as a measure of signaling through the Ras-mediated proliferation pathway. Samples from cells treated with TNFα were analyzed for activation of NFκB, i.e. phosphoNFκB, and the down-stream proteins, cyclooxygenase-2 (Cox-2), E-selectin and VCAM-1. […]

[2] = system: phosphorylated ERK1/2; test: Western analysis of phosphorylated ERK1/2 in human RECs; format: cell-based
Protocol: as §1, §2

[3] = system: endogenous SK; test: Cellular S1P formation assay in human chondrocytes (HC); format: cell-based; conditions: HCs; read-out: drug concentration that decreases S1P formation by 50%
Protocol: (§3) Cellular S1P formation assay. Cells were grown to confluency in 24-well tissue culture plates and serum-starved for 24 hours as described above. Cells were then treated with 1% DMSO (as the drug vehicle), 20 μM dimethylsphingosine, or the indicated concentration of an SK inhibitor for 4 hours. The cells were then incubated with [^3H]sphingosine for 15 minutes, and the formation of [^3H]S1P was measured as previously described (French et al., Cancer Res 63: 5962 (2003)). In some assays, the cells were serum-starved for 24 hours and then treated with VEGF (50 ng/mL) alone or in the presence of an SK inhibitor for an additional 12 hours. [^3 H]Sphingosine was then added for 15 minutes, and its conversion to [^3H]S1P was measured as indicated above.
(§4) A cell-based assay in which the phosphorylation of exogenously added [^3H]sphingosine to [^3H]S1P by endogenous SK can be quantified (French et al., Cancer Res 63: 5962 (2003)) was used to evaluate the effects of test compounds on the activity of SK in intact cells. In this assay, cells are incubated with [^3 H]sphingosine for an appropriate period of time, and then [^3H]sphingosine and [^3H]S1P (formed by endogenous SK activity) are separated by extraction and levels of both species are determined by scintillation counting. […] Similarly, the enzymatic activity of SK in bovine RECs, and its sensitivity to SK inhibitors were assessed. […]

[4] = system: endogenous SK; test: Cellular S1P formation assay in HUVECs; format: cell-based, human; conditions: read-out: drug concentration that decreases S1P formation by 50%
Protocol: FIG. 2. Inhibition of S1P production in HUVECs by SK inhibitors. […] After 15 minutes, cells were lysed and extracted with chloroform: methanol, and the amounts of [^3H]sphingosine in the organic phase and [^3H]S1P in the aqueous phase were then determined. Values represent the mean±sd SK activity.
as §3, with “In some assays, the cells were serum-starved for 24 hours and then treated with VEGF (50 ng/mL) alone or in the presence of an SK inhibitor for an additional 12 hours.” left out
A cell-based assay in which the phosphorylation of exogenously added [^3H]sphingosine to [^3H]S1P by endogenous SK can be quantified (French et al., Cancer Res 63: 5962 (2003)) was used to evaluate the effects of test compounds on the activity of SK in intact cells. […] Similarly, the enzymatic activity of SK in bovine RECs, and its sensitivity to SK inhibitors were assessed. […]

[5] = system: human RECs; test: Cytotoxicity assay (sulforhodamine) toward human RECs; format: cell-based; conditions: 12 or 14 hours, serum-starved human RECs
Protocol: FIG. 4. Toxicity of Compound II toward HRECs. Human RECs were serum-starved for 24 hours and then left untreated for 12 hours (▪) or incubated with 50 ng/mL VEGF (▴) for 14 hours in the presence of the indicated concentration of Compound II. These protocols were chosen to exactly match conditions in SK activity and proliferation experiments described below. After incubation, the percentages of cells that survived the treatment were determined. Values represent the mean i SD cell survival in triplicate samples in a typical experiment.
Cytotoxicity assays. Cells were grown to confluence in 96-well tissue culture plates and serum-starved for 24 hours as described above. Cells were then treated with varying concentrations of Compound II for 12 hours (to parallel the SK activity assays described above) or with varying concentrations of Compound II and 50 ng/mL of VEGF for 14 hours (to parallel the proliferation assays described below). Cell survival was determined using the sulforhodamine assay (Skehan et al., J Natl Cancer Inst 82: 1107 (1990)).
Since Compound II was the most efficacious inhibitor of SK in the RECs, this compound was used to characterize the biological effects of inhibiting SK in these cells. It was first necessary to determine the toxic effects of this compound toward cultures of RECs under conditions identical to subsequent signal studies. […]

[6] = system: endogenous SK; test: Cellular S1P formation assay in HFLS-RA cells; format: cell-based, human; conditions: read-out: drug concentration that decreases S1P formation by 50%
Protocol: as §3, §4

IC50 [3]: 0.36 µM | IC50 [4]: 0.2 µM | IC50 [6]: 0.19 µM
Structure (SMILES): Oc1ccc(Nc2nc(-c3ccc(Cl)cc3)cs2)cc1 [Compound II]
TNFα-induced up-regulation of E-selectin expression [1]: completely blocked | TNFα-induced up-regulation of VCAM-1 expression [1]: completely blocked | VEGF-promoted phosphorylation of ERK1/2 ([2]; VEGF 50 ng/mL, 15 minutes): completely abrogated | residual pERK1/2 in serum-starved cells ([2]; human RECs, no VEGF): eliminated | cell kill ([5]; concentrations up to approximately 16 μM): < 10% | cell kill ([5]; concentrations up to at least 65 μM): less than 25%
